The values that follow come from US5204361A, “Method for treating laminitis in equine livestock” (priority 1988, dated 1993).

For one series, the system named is cattle. Particulars: Nagaraja et al. (1981); cited from earlier work.
In the next series the test system is horses. Particulars: cited from earlier work.
Series [1] relates to horses dosed with 15 g wheat/kg liveweight. The note with it: for D-lactic acid, caecum / D-lactic acid, large colon / L-lactic acid, large colon / Lameness (Obel grade): avoparcin 120 mg/kg wheat; for D-lactic acid, caecum / D-lactic acid, large colon / L-lactic acid, large colon: 24 hours after wheat; for Lameness (Obel grade): within 24 hours of wheat.
Description: Four horses were dosed with 15 g wheat/kg liveweight. The wheat given to two of the animals contained 120 mg avoparcin/kg wheat, and the other two animals received the wheat without medication. Animals were examined prior to dosing and at intervals of eight hours after the dosing for a period of 24 hours. At these times temperature and heart rate were measured, and a sample of venous blood was taken for the measurement of pH, blood gases, bicarbonate, D-lactate and L-lactate. Animals were also examined for any signs of lameness according to the criteria of Obel (1948) as summarized by Garner et al (1977). After 24 hours all animals were slaughtered and samples of digesta were taken from the caecum and large colon for analysis of lactic acid, VFA and avoparcin concentration.
The subject of series [2] is caecal and large colon contents. In words: Experiment 2 Part 3: in vitro screening at 2 ug/ml in digesta of four horses. In kind it is cell-based, horse. The note with it: 2 ug antibiotic/ml, 15 mg cornstarch/ml, 20 hour incubation. On the procedure: (§1) Digesta was taken from the caecum and large colon from recently slaughtered animals and was filtered through nylon gauze (approximately 60 micron apertures). The fluid was diluted 1:1 with a buffer solution described by Bales et al. (1976) and incubated with wheat "corn starch" (with or without antibiotics) at 37° for 16 to 20 hours. Aliquots of digesta diluted with buffer (50 ml) were added to 100 ml conical flasks. The flasks were flushed with carbon dioxide before being sealed with a tightly fitting rubber cap. A 21 gauge needle was inserted through the rubber seal in order to allow gas to escape during the fermentation. On removal from the incubator sub-samples were immediately taken to measure L-lactic acid concentration and pH. For each treatment or level of antibiotic three replicate incubation flasks were used.
All four of the antibiotics, listed above, were incubated as previously described to provide 2 ug antibiotic and 15 mg cornstarch per ml incubation mixture. There was one flask per test and each antibiotic was incubated in digesta from both the caecum and the large colon taken from each of 4 animals. Samples of incubation fluid were taken following a 20 hour incubation and were analysed for L-lactate and pH.

The subject of series [3] is mixed caecal/large colon digesta. In words: Experiment 2 Part 1: in vitro fermentation of digesta with cornstarch, avoparcin, virginiamycin, flavomycin 2-32 ug/ml. In kind it is cell-based, horse. Also on record: Lactate / Total VFA: unit not given here. Particulars: for pH / Acet:Prop / Lactate / Total VFA: mean. On the procedure:
as §1
A range of concentrations of cornstarch providing: 0, 5, 10, 15 and 20 mg/ml diluted digesta (i.e. from 0 to 1 g cornstarch/conical flask) were tested to determine the amount required to produce a pattern of fermentation with high levels of lactic acid. Flasks were also prepared with cornstarch mixed with antibiotic premixes to provide 15 mg cornstarch/ml incubation mixture and 0, 2, 4, 8, 16 and 32 ug of avoparcin, virginiamycin or flavomycin per ml incubation mixture. After approximately 16 hour incubation at 37° samples were taken to measure lactic acid, VFA and pH.

A further series has as its system sheep. The note with it: sheep dosed with round wheat; Aitchison et al. (1986); cited from earlier work.
[4] abbreviates: antibiotic 2 μg/ml, cornstarch 15 mg/ml, approx 16 hour incubation.
[5] abbreviates: antibiotic 4 μg/ml, cornstarch 15 mg/ml, approx 16 hour incubation.
Where [6] appears, read: antibiotic 8 μg/ml, cornstarch 15 mg/ml, approx 16 hour incubation.
Where [7] appears, read: antibiotic 16 μg/ml, cornstarch 15 mg/ml, approx 16 hour incubation.
Setting [8] is: antibiotic 32 μg/ml, cornstarch 15 mg/ml, approx 16 hour incubation.

Where two headings read alike, the source gives them in different places.

In the case of `CC[C@@]1([C@@H]2O[C@@H]([C@H]3O[C@@](O)(CO)[C@H](C)C[C@@H]3C)C[C@@H]2C)CC[C@H]([C@]2(C)CC[C@]3(C[C@H](O)[C@@H](C)[C@@H]([C@@H](C)[C@@H](OC)[C@H](C)C(=O)O)O3)O2)O1` [monensin], the “control of lactic acidosis” value in the series on cattle is “lactic acidosis could be controlled”. For the same compound, the “toxicity on the host” value in the series on horses was “highly toxic”.

Turning to avoparcin, the “Lactic acid concentrations, large colon digesta versus caecal contents” value in series [1] (animals given avoparcin) is reported as “appreciably lower in the large colon digesta”. Besides, the figures for the “D-lactic acid, caecum” value in series [1] (horse 2) and in series [1] (horse 4) were 33 mmol/L and 34 mmol/L, respectively. For the same compound, the figures for the “D-lactic acid, large colon” value in series [1] (horse 2) and in series [1] (horse 4) were 2 mmol/L and 11 mmol/L, respectively. For the same compound, the “L-lactic acid, large colon” value in series [1] (horse 2) was 2 mmol/L; in series [1] (horse 4), 10 mmol/L. The “Lameness (Obel grade)” value in series [1] (horse 2) and in series [1] (horse 4) was “Obel 2” each time. Further, the “concentrations of the antibiotic, caecum versus large colon” value in series [1] (in vivo) was “lower in the caecum than in the large colon”. In series [1] (wheat slurry with and without avoparcin), the “Lactic acid accumulation in the hind-gut and lameness” value is “developed irrespective of the presence of avoparcin”. Besides, the pH in series [2] (Horse 1) amounted to 5.12; in series [2] (Horse 2), 4.57; in series [2] (Horse 3), 4.75; in series [2] (Horse 4), 5.15; in series [2] (Mean of 4 horses) it was 4.90; in series [3] (antibiotic 2 μg/ml, cornstarch 15 mg/ml, approx 16 hour incubation at 37°), 6.14. For the same compound, the pH in series [3] (setting [5]) is 6.17; in series [3] (setting [6]) it was 6.33; in series [3] (setting [7]) it was 6.40; in series [3] (setting [8]), 6.43. In addition, the L-lactate in series [2] (Horse 1, mean of caecum and large colon) stood at 19.8 mmol/L; in series [2] (Horse 2, mean of caecum and large colon), 67.9 mmol/L; in series [2] (Horse 3, mean of caecum and large colon), 34.5 mmol/L; in series [2] (Horse 4, mean of caecum and large colon), 20.0 mmol/L; in series [2] (Mean of 4 horses) it was 35.5 mmol/L. In addition, the “Acet:Prop” value in series [3] (setting [4]) was 2.9; in series [3] (setting [5]), 2.8; in series [3] (setting [6]) it was 3.3; in series [3] (setting [7]), 3.5; in series [3] (setting [8]), 3.6. Besides, the Lactate in series [3] (setting [4]) is on record as 8.9; in series [3] (setting [5]) it was 12.0; in series [3] (setting [6]), 11.0; in series [3] (setting [7]), 10.3; in series [3] (setting [8]), 15.1. Besides, the “Total VFA” value in series [3] (setting [4]) is on record as 102.6; in series [3] (setting [5]), 100.9; in series [3] (setting [6]) it was 82.1; in series [3] (setting [7]), 87.1; in series [3] (setting [8]) it was 89.8. For the same compound, in series [3] (even at 32 µg/ml, cornstarch 15 mg/ml), the “control of lactic acid build-up” value is on record as “only partially controlled”. The “control of lactic acid” value is “failed to completely control lactic acid” in series [3] (even at the highest concentrations (approx 32 times the minimum effective dose of virginiamycin)) and “particularly effective” with sheep.
